US20220162200A1, “PKM2 MODULATORS AND METHODS FOR THEIR USE” (Sumitomo Dainippon Pharma Oncology, Inc., priority 2019, published 2022)

Assays:
PKM2 = PKM2 (Homo sapiens, UniProt P14618); assay: PKM2 activation assay (ATP formation measured by Kinase Glo); type: biochemical; details: 2 nM PKM2, 30 min pre-incubation, 75 μM ADP, 15 μM PEP, ATP formation after 30 min
Procedure: Compounds were pre-incubated with 2 nM PKM2 in reaction buffer (50 mM Tris-HCl, pH 8.0, 200 mM KCl, 30 mM MgCl2, 2 mM Dithiothreitol (DTT), 5% Dimethyl sulfoxide (DMSO)) for 30 min at ambient temperature. Adenosine diphosphate (ADP) and Phosphoenolpyruvic acid (PEP) were then added to final concentrations of 75 μM and 15 μM, respectively. After 30 min, Adenosine triphosphate (ATP) formation was measured by Kinase Glo (Promega, Madison, Wis.), and AC50 values were determined using Prism (GraphPad Software, Inc., La Jolla, Calif.).

A549 cells = assay: A549 cell viability by ATPlite assay; type: cell-based; details: Homo sapiens, A549 cells in BME media lacking nonessential amino acids + 5% dialyzed serum, 72 hours
Procedure: A549 cells were seeded at 5000 cells per well (in 96-well plate) in Basal Medium Eagle (BME) media lacking nonessential amino acids+5% dialyzed serum. After 18 hours, a negative control (i.e., DMSO only) or a representative compound in 0.1% final concentration DMSO was added. After 72 hours, cell viability was determined by ATPlite assay and EC50 values were determined using Prism GraphPad Software (La Jolla, Calif.).

Sequence of PKM2 (P14618 whole entry): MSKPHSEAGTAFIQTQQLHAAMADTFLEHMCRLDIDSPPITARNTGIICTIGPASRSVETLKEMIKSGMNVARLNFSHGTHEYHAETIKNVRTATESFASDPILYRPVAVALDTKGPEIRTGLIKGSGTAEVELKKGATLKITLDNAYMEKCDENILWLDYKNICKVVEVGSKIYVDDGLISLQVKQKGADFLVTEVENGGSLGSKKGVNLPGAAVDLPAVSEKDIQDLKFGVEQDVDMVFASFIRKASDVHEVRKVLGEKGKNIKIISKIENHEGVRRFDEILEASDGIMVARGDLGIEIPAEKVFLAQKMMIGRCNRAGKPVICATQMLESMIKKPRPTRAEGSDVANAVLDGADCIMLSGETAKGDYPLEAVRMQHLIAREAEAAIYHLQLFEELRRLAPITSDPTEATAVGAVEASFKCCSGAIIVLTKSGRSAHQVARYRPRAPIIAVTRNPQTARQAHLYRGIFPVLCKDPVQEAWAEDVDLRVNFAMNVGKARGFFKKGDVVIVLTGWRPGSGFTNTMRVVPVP

SMILES	AC50 (PKM2) [nM]	EC50 (A549 cells) [nM]
Nc1cccc(Cl)c1CN(CCC1CCS(=O)(=O)CC1)C(=O)c1cc(C(F)(F)F)n[nH]1 [Compound Ia, N-(2-amino-6-chlorobenzyl)-N-(2-(1,1-dioxidotetrahydro-2H-thiopyran-4-yl)ethyl)-3-(trifluoromethyl)-1H-pyrazole-5-carboxamide]	< 15	
Cc1ccc(F)c(CN(CCC2CCS(=O)(=O)CC2)C(=O)c2cc(C(F)(F)F)n[nH]2)c1 [Compound Ic, N-(2-(1,1-dioxidotetrahydro-2H-thiopyran-4-yl)ethyl)-N-(2-fluoro-5-methylbenzyl)-3-(trifluoromethyl)-1H-pyrazole-5-carboxamide]	15 to 50	50 to 100
O=C(c1cc(C(F)(F)F)n[nH]1)N(CCC1CCS(=O)(=O)CC1)Cc1c(F)ccc2cc[nH]c12 [Compound Id, N-(2-(1,1-dioxidotetrahydro-2H-thiopyran-4-yl)ethyl)-N-((6-fluoro-1H-indol-7-yl)methyl)-3-(trifluoromethyl)-1H-pyrazole-5-carboxamide]	< 15	
O=C(c1cc(C(F)(F)F)n[nH]1)N(CCC1CCS(=O)(=O)CC1)Cc1c(F)ccc2c(Cl)c[nH]c12 [Compound Ie, N-(2-(1,1-dioxidotetrahydro-2H-thiopyran-4-yl)ethyl)-N-((3-chloro-6-fluoro-1H-indol-7-yl)methyl)-3-(trifluoromethyl)-1H-pyrazole-5-carboxamide]	< 15	
Nc1cccc(Br)c1CN(CCC1CCS(=O)(=O)CC1)C(=O)c1cc(C(F)(F)F)n[nH]1 [Compound Ih, N-(2-amino-6-bromobenzyl)-N-(2-(1,1-dioxidotetrahydro-2H-thiopyran-4-yl)ethyl)-3-(trifluoromethyl)-1H-pyrazole-5-carboxamide]	> 50	
Nc1ccccc1CN(CCC1CCS(=O)(=O)CC1)C(=O)c1cc(C(F)(F)F)n[nH]1 [Compound Ii, N-(2-aminobenzyl)-N-(2-(1,1-dioxidotetrahydro-2H-thiopyran-4-yl)ethyl)-3-(trifluoromethyl)-1H-pyrazole-5-carboxamide]	> 50	50 to 100
O=C(c1cc(C(F)(F)F)n[nH]1)N(CCC1CCS(=O)(=O)CC1)Cc1c(F)ccc2cn[nH]c12 [Compound Ig, N-(2-(1,1-dioxidotetrahydro-2H-thiopyran-4-yl)ethyl)-N-((6-fluoro-1H-indazol-7-yl)methyl)-3-(trifluoromethyl)-1H-pyrazole-5-carboxamide]	15 to 50	> 100
NCc1ccc(F)c(CN(CCC2CCS(=O)(=O)CC2)C(=O)c2cc(C(F)(F)F)n[nH]2)c1 [Compound If, N-(2-(1,1-dioxidotetrahydro-2H-thiopyran-4-yl)ethyl)-N-(2-fluoro-5-aminomethylbenzyl)-3-(trifluoromethyl)-1H-pyrazole-5-carboxamide]	15 to 50	> 100
O=C(c1cc(C(F)(F)F)n[nH]1)N(CCC1CCS(=O)(=O)CC1)Cc1c(F)cccc1Cl [Compound Ij, N-(2-chloro-6-fluorobenzyl)-N-(2-(1,1-dioxidotetrahydro-2H-thiopyran-4-yl)ethyl)-3-(trifluoromethyl)-1H-pyrazole-5-carboxamide]	> 50	
O=C(c1cc(C(F)(F)F)n[nH]1)N(CCC1CCS(=O)(=O)CC1)Cc1c(F)cccc1Br [Compound Ib, N-(2-bromo-6-fluorobenzyl)-N-(2-(1,1-dioxidotetrahydro-2H-thiopyran-4-yl)ethyl)-3-(trifluoromethyl)-1H-pyrazole-5-carboxamide]	15 to 50	> 100
